Assay results: patent publication US20240194290A1, “HIDDEN ANTIBIOTICS IN THE HUMAN PROTEOME” (THE TRUSTEES OF THE UNIVERSITY OF PENNSYLVANIA, priority 2021, published 2024)
Ends that are not written are not given here.

Columns and labels:
Experiment in all cases: Outer membrane permeabilization (NPN uptake) assay
Conditions in all cases: peptides at MIC
P. aeruginosa PAO1 = format: cell-based, Pseudomonas aeruginosa
Experimental: (§1) FIG. 10. Membrane permeabilization and depolarization assays for several bacterial strains. […] FIG. 10B: Cytoplasmic membrane depolarization assays performed against P. aeruginosa PAO1 and the gut commensal B. fragilis ATCC25285.
(§2) Methods: Membrane depolarization assays. The cytoplasmic membrane depolarization activity of the peptides was determined by measurements of fluorescence of the membrane potential-sensitive dye, DiSC3(5). Briefly, A. baumannii ATCC19606, P. aeruginosa PAO1 and B. fragilis ATCC25285 were grown at 37° C. with agitation until they reached mid-log phase (OD600=0.5). […] Thereafter, the cells (100 μL) were incubated for 15 min with 20 nmol L^−1 of DiSC3(5) until a stable reduction of fluorescence was achieved, indicating the incorporation of the dye into the bacterial membrane. Membrane depolarization was then monitored by observing the change in the fluorescence emission intensity of the membrane potential-sensitive dye, DiSC3(5) (λex=622 nm, λem=670 nm), after the addition of peptides (100 μL solution at MIC values). […] The membrane permeability of the peptides was determined by using the N-phenyl-1-napthylamine (NPN) uptake assay. […] The background fluorescence was recorded at λex=350 nm and λem=420 nm. […]

B. fragilis ATCC25285 = format: cell-based, Bacteroides fragilis
Experimental: as §1, §2

S. epidermidis = format: cell-based, Staphylococcus epidermidis
Experimental: as §1, §2

Measured: outer membrane permeabilization (NPN)

SKEMFPRSFIKLLRSKVSRFLRPYK [SCUB1-SKE25]
permeabilized: P. aeruginosa PAO1 | B. fragilis ATCC25285 | S. epidermidis
